Results from publication PMC9688307 (2022).
One block for each compound: values may come before it.

Columns and labels:
[1] = tested on: BP33-stem-29GT (DNA, aptamer) CCGCCGTTGGTGTGGTGGGCCTAGGGCCTGCGG; assay: ITC; conditions: 100 mM NaCl, 25 mM KCl, 10 mM MgCl2; 25 mM Tris-HCl pH 8.0, 2% DMSO; 500 μM BPA into 30 μM aptamer
[2] = tested on: BP33-15GT (DNA, aptamer) CCGCCGTTGGTGTGTTGGGCCTAGGGCCGGCGG; assay: ITC; conditions: 100 mM NaCl, 25 mM KCl, 10 mM MgCl2; 25 mM Tris-HCl pH 8.0, 2% DMSO; 500 μM BPA into 30 μM aptamer
[3] = tested on: BP34 (DNA, aptamer) CGCCGTTGGTGTGGTGGGCCTAGGGCCGGCGGCG; assay: ITC; conditions: 100 mM NaCl, 25 mM KCl, 10 mM MgCl2; 25 mM Tris-HCl pH 8.0, 2% DMSO; 500 μM BPA into 30 μM aptamer
[4] = tested on: BP33-10GT (DNA, aptamer) CCGCCGTTGTTGTGGTGGGCCTAGGGCCGGCGG; assay: ITC; conditions: 100 mM NaCl, 25 mM KCl, 10 mM MgCl2; 25 mM Tris-HCl pH 8.0, 2% DMSO; 500 μM BPA into 30 μM aptamer
[5] = tested on: BP33-20CA (DNA, aptamer) CCGCCGTTGGTGTGGTGGGACTAGGGCCGGCGG; assay: ITC; conditions: 100 mM NaCl, 25 mM KCl, 10 mM MgCl2; 25 mM Tris-HCl pH 8.0, 2% DMSO; 500 μM BPA into 30 μM aptamer
[6] = tested on: BP33-25GT (DNA, aptamer) CCGCCGTTGGTGTGGTGGGCCTAGTGCCGGCGG; assay: ITC; conditions: 100 mM NaCl, 25 mM KCl, 10 mM MgCl2; 25 mM Tris-HCl pH 8.0, 2% DMSO; 500 μM BPA into 30 μM aptamer
[7] = tested on: BP29 (DNA, aptamer) GCCGTTGGTGTGGTGGGCCTAGGGCCGGC; assay: ITC; conditions: 100 mM NaCl, 25 mM KCl, 10 mM MgCl2; 25 mM Tris-HCl pH 8.0, 2% DMSO; 500 μM BPA into 30 μM aptamer
[8] = tested on: BP27 (DNA, aptamer) CCGTTGGTGTGGTGGGCCTAGGGCCGG; assay: ITC; conditions: 100 mM NaCl, 25 mM KCl, 10 mM MgCl2; 25 mM Tris-HCl pH 8.0, 2% DMSO; 500 μM BPA into 30 μM aptamer
[9] = tested on: BP35 (DNA, aptamer) CCGCCGTTGGTGTGGTGGGCCTAGGGCCGGCGGCG; assay: ITC; conditions: 100 mM NaCl, 25 mM KCl, 10 mM MgCl2; 25 mM Tris-HCl pH 8.0, 2% DMSO; 500 μM BPA into 30 μM aptamer
[10] = tested on: BP45 (DNA, aptamer) CCGCCGTTGGTGTGGTGGGCCTAGGGCCGGCGGCGCACAGCTGTT; assay: ITC; conditions: 100 mM NaCl, 25 mM KCl, 10 mM MgCl2; 25 mM Tris-HCl pH 8.0, 2% DMSO; 500 μM BPA into 30 μM aptamer
[11] = tested on: BP40 (DNA, aptamer) CCGCCGTTGGTGTGGTGGGCCTAGGGCCGGCGGCGCACAG; assay: ITC; conditions: 100 mM NaCl, 25 mM KCl, 10 mM MgCl2; 25 mM Tris-HCl pH 8.0, 2% DMSO; 500 μM BPA into 30 μM aptamer
[12] = tested on: BP29-3'-MB (DNA, aptamer) GCCGTTGGTGTGGTGGGCCTAGGGCCGGC; assay: square wave voltammetry, aptamer-modified gold electrode; conditions: 100 mM NaCl, 25 mM KCl, 10 mM MgCl2, 25 mM Tris-HCl pH 8.0
[13] = tested on: BP33-23AT (DNA, aptamer) CCGCCGTTGGTGTGGTGGGCCTTGGGCCGGCGG; assay: ITC; conditions: 100 mM NaCl, 25 mM KCl, 10 mM MgCl2; 25 mM Tris-HCl pH 8.0, 2% DMSO; 500 μM BPA into 30 μM aptamer
[14] = tested on: BP33-22TA (DNA, aptamer) CCGCCGTTGGTGTGGTGGGCCAAGGGCCGGCGG; assay: ITC; conditions: 100 mM NaCl, 25 mM KCl, 10 mM MgCl2; 25 mM Tris-HCl pH 8.0, 2% DMSO; 500 μM BPA into 30 μM aptamer
[15] = tested on: BP33-21CA (DNA, aptamer) CCGCCGTTGGTGTGGTGGGCATAGGGCCGGCGG; assay: ITC; conditions: 100 mM NaCl, 25 mM KCl, 10 mM MgCl2; 25 mM Tris-HCl pH 8.0, 2% DMSO; 500 μM BPA into 30 μM aptamer
[16] = tested on: BP33-16TA (DNA, aptamer) CCGCCGTTGGTGTGGAGGGCCTAGGGCCGGCGG; assay: ITC; conditions: 100 mM NaCl, 25 mM KCl, 10 mM MgCl2; 25 mM Tris-HCl pH 8.0, 2% DMSO; 500 μM BPA into 30 μM aptamer
[17] = tested on: BP33-26GT (DNA, aptamer) CCGCCGTTGGTGTGGTGGGCCTAGGTCCGGCGG; assay: ITC; conditions: 100 mM NaCl, 25 mM KCl, 10 mM MgCl2; 25 mM Tris-HCl pH 8.0, 2% DMSO; 500 μM BPA into 30 μM aptamer
[18] = tested on: BP33-13TA (DNA, aptamer) CCGCCGTTGGTGAGGTGGGCCTAGGGCCGGCGG; assay: ITC; conditions: 100 mM NaCl, 25 mM KCl, 10 mM MgCl2; 25 mM Tris-HCl pH 8.0, 2% DMSO; 500 μM BPA into 30 μM aptamer
[19] = tested on: BP63 (DNA, aptamer) CCGGTGGGTGGTCAGGTGGGATAGCGTTCCGCGTATGGCCCAGCGCATCACGGGTTCGCACCA; assay: ITC; conditions: 100 mM NaCl, 25 mM KCl, 10 mM MgCl2; 25 mM Tris-HCl pH 8.0, 2% DMSO; 200 μM BPA into 20 μM aptamer
[20] = tested on: BP33-14GT (DNA, aptamer) CCGCCGTTGGTGTTGTGGGCCTAGGGCCGGCGG; assay: ITC; conditions: 100 mM NaCl, 25 mM KCl, 10 mM MgCl2; 25 mM Tris-HCl pH 8.0, 2% DMSO; 500 μM BPA into 30 μM aptamer
[21] = tested on: BP50 (DNA, aptamer) CCGCCGTTGGTGTGGTGGGCCTAGGGCCGGCGGCGCACAGCTGTTATAGA; assay: ITC; conditions: 100 mM NaCl, 25 mM KCl, 10 mM MgCl2; 25 mM Tris-HCl pH 8.0, 2% DMSO; 500 μM BPA into 30 μM aptamer
[22] = tested on: BP33-18GT (DNA, aptamer) CCGCCGTTGGTGTGGTGTGCCTAGGGCCGGCGG; assay: ITC; conditions: 100 mM NaCl, 25 mM KCl, 10 mM MgCl2; 25 mM Tris-HCl pH 8.0, 2% DMSO; 500 μM BPA into 30 μM aptamer
[23] = tested on: BP33-12GT (DNA, aptamer) CCGCCGTTGGTTTGGTGGGCCTAGGGCCGGCGG; assay: ITC; conditions: 100 mM NaCl, 25 mM KCl, 10 mM MgCl2; 25 mM Tris-HCl pH 8.0, 2% DMSO; 500 μM BPA into 30 μM aptamer
[24] = tested on: BP31 (DNA, aptamer) CGCCGTTGGTGTGGTGGGCCTAGGGCCGGCG; assay: ITC; conditions: 100 mM NaCl, 25 mM KCl, 10 mM MgCl2; 25 mM Tris-HCl pH 8.0, 2% DMSO; 500 μM BPA into 30 μM aptamer
[25] = tested on: BP33-8TA (DNA, aptamer) CCGCCGTAGGTGTGGTGGGCCTAGGGCCGGCGG; assay: ITC; conditions: 100 mM NaCl, 25 mM KCl, 10 mM MgCl2; 25 mM Tris-HCl pH 8.0, 2% DMSO; 500 μM BPA into 30 μM aptamer
[26] = tested on: BP33-17GT (DNA, aptamer) CCGCCGTTGGTGTGGTTGGCCTAGGGCCGGCGG; assay: ITC; conditions: 100 mM NaCl, 25 mM KCl, 10 mM MgCl2; 25 mM Tris-HCl pH 8.0, 2% DMSO; 500 μM BPA into 30 μM aptamer
[27] = tested on: BP33-7TA (DNA, aptamer) CCGCCGATGGTGTGGTGGGCCTAGGGCCGGCGG; assay: ITC; conditions: 100 mM NaCl, 25 mM KCl, 10 mM MgCl2; 25 mM Tris-HCl pH 8.0, 2% DMSO; 500 μM BPA into 30 μM aptamer
[28] = tested on: BP33 (DNA, aptamer) CCGCCGTTGGTGTGGTGGGCCTAGGGCCGGCGG; assay: ITC; conditions: 100 mM NaCl, 25 mM KCl, 10 mM MgCl2; 25 mM Tris-HCl pH 8.0, 2% DMSO; 500 μM BPA into 30 μM aptamer
[29] = tested on: BP33-11TA (DNA, aptamer) CCGCCGTTGGAGTGGTGGGCCTAGGGCCGGCGG; assay: ITC; conditions: 100 mM NaCl, 25 mM KCl, 10 mM MgCl2; 25 mM Tris-HCl pH 8.0, 2% DMSO; 500 μM BPA into 30 μM aptamer
[30] = tested on: BP33-stem-6GT (DNA, aptamer) CCGCCTTTGGTGTGGTGGGCCTAGGGCCGGCGG; assay: ITC; conditions: 100 mM NaCl, 25 mM KCl, 10 mM MgCl2; 25 mM Tris-HCl pH 8.0, 2% DMSO; 500 μM BPA into 30 μM aptamer
[31] = tested on: BP33-27CA (DNA, aptamer) CCGCCGTTGGTGTGGTGGGCCTAGGGACGGCGG; assay: ITC; conditions: 100 mM NaCl, 25 mM KCl, 10 mM MgCl2; 25 mM Tris-HCl pH 8.0, 2% DMSO; 500 μM BPA into 30 μM aptamer
[32] = tested on: BP55 (DNA, aptamer) CCGCCGTTGGTGTGGTGGGCCTAGGGCCGGCGGCGCACAGCTGTTATAGACGTCT; assay: ITC; conditions: 100 mM NaCl, 25 mM KCl, 10 mM MgCl2; 25 mM Tris-HCl pH 8.0, 2% DMSO; 500 μM BPA into 30 μM aptamer
[33] = tested on: BP33-9GT (DNA, aptamer) CCGCCGTTTGTGTGGTGGGCCTAGGGCCGGCGG; assay: ITC; conditions: 100 mM NaCl, 25 mM KCl, 10 mM MgCl2; 25 mM Tris-HCl pH 8.0, 2% DMSO; 500 μM BPA into 30 μM aptamer
[34] = tested on: BP25 (DNA, aptamer) CGTTGGTGTGGTGGGCCTAGGGCCG; assay: ITC; conditions: 100 mM NaCl, 25 mM KCl, 10 mM MgCl2; 25 mM Tris-HCl pH 8.0, 2% DMSO; 500 μM BPA into 30 μM aptamer
[35] = tested on: BP33-stem-30GT (DNA, aptamer) CCGCCGTTGGTGTGGTGGGCCTAGGGCCGTCGG; assay: ITC; conditions: 100 mM NaCl, 25 mM KCl, 10 mM MgCl2; 25 mM Tris-HCl pH 8.0, 2% DMSO; 500 μM BPA into 30 μM aptamer
[36] = 100 μM tested, no remarkable current change

binding [1]: no | binding [2]: no | Kd [3]: 307 ± 249 µM | binding [4]: no | Kd [5]: 14.6 ± 0.9 µM | binding [6]: no | Kd [7]: 12.4 ± 3.4 µM | Kd [8]: 56 ± 9.0 µM | Kd [9]: 20.2 ± 1.0 µM | Kd [10]: 12.5 ± 0.8 µM | Kd [11]: 15.4 ± 0.9 µM | binding ([12]; current increased 88% at 500 μM BPA): yes | binding [13]: no | Kd [14]: 15.2 ± 0.9 µM | Kd [15]: 10.5 ± 0.7 µM | Kd [16]: 24.4 ± 1.6 µM | binding [17]: no | Kd [18]: 22.6 ± 6.9 µM | binding [19]: no | binding [20]: no | Kd [21]: 9.5 ± 0.5 µM | binding [22]: no | binding [23]: no | Kd [24]: 13.4 ± 1.5 µM | binding [25]: no | binding [26]: no | Kd [27]: 68.4 ± 4.9 µM | Kd [28]: 10.5 ± 1.5 µM | Kd [29]: 24.4 ± 1.8 µM | binding [30]: no | Kd [31]: 16.0 ± 2.2 µM | Kd [32]: 11.6 ± 1.0 µM | binding [33]: no | binding [34]: no | Kd [35]: 51.2 ± 10.4 µM
SMILES: CC(C)(c1ccc(O)cc1)c1ccc(O)cc1

binding [12, 36]: no
SMILES: CN(C)[C@@H]1C(=O)C(C(N)=O)=C(O)[C@@]2(O)C(=O)C3=C(O)c4c(O)cccc4[C@@](C)(O)[C@H]3[C@H](O)[C@@H]12

binding [12, 36]: no
SMILES: Oc1ccc(-c2ccc(O)cc2)cc1

Second part, the compound before the results:

SMILES: CN(C)[C@@H]1C(=O)C(C(N)=O)=C(O)[C@@]2(O)C(=O)C3=C(O)c4c(O)cccc4[C@@](C)(O)[C@H]3C[C@@H]12
binding [12, 36]: no

SMILES: O=S(=O)(c1ccc(O)cc1)c1ccc(O)cc1
binding [12, 36]: no
